US20240117005A1, “NOVEL BICYCLIC PEPTIDES” (THE COUNCIL OF THE QUEENSLAND INSTITUTE OF MEDICAL RESEARCH, priority 2021, published 2024)
“Also recorded” adds a separate entry of the source. No end group written: not given here. *: point of attachment. Myristyl = CCCCCCCCCCCCCC*

What was measured:
[1] = target: T1, complex of PDL1-PTM1 and IMPα1 (Mus musculus, UniProt P52293); test: DUOLINK proximity assay PDL1-PTM1 and IMPα1, CT26; type: cell-based
T1 construct: endogenous in cells; host or cells: CT26
Description: (A) CT26, 4T1 or MDA-MB-231 Cells were treated with inhibitors for 72 hours. Following inhibition, media was removed and replaced with WST-1 cell proliferation reagent. Absorbance was recorded at 450 nm after 1 hour. Data represent a single independent experiment performed in triplicate. Results are graphed as mean +/− standard error (SE). B) MDA-MB-231 or CT26 cancer cells were treated with vehicle control, DL-2-Batch 1 (original stock), DL-2-Batch 2 (current stock), DL-2-TBAB or linear PDL1. Cells were permeabilised and were probed with the DUOLINK ligation assay. Cover slips were mounted on glass microscope slides with ProLong nucblue glass Antifade reagent (Life Technologies). PDL1Ac and IMPα1 DUOLINK Digital images were analysed using ImageJ software (ImageJ, NIH, Bethesda, MD, USA) and graphs represent the mean DOT Fluorescent Intensity in the nucleus or the cytoplasm compartments with significant differences calculated as per one-way ANOVA comparison. […] PDL1-unmodified and IMPα1 DUOLINK digital images were analysed using ImageJ software (ImageJ, NIH, Bethesda, MD, USA) and graphs represent the mean DOT fluorescent intensity in the nucleus or the cytoplasm compartments with significant differences calculated as per one-way ANOVA comparison. […]

[2] = system: CSV, ABCB5, EGFR, FOXQ1, E-Cadherin in MDA-MB-231 cells; test: High resolution digital pathology of mesenchymal/epithelial markers, MDA-MB-231; type: cell-based, human
Description: To examine the signature of CD8, CSV, EGFR, ABCB5, FOXQ1, commercial PD-L1-28-8, nuclear PD-L1, cytoplasmic PDL1 in MDA-MB-231 TNBC cells/TNBC brain cancer clone cells (untreated or treated with bicyclic inhibitors targeting nuclear PD-L1-PTM1). MDA-MB-231/MDA-MB-231-Br cells were permeabilised by incubating with 0.5% Triton X-100 for 15 min, blocked with 1% BSA in PBS and were probed with either CSV (Mouse host), CD8 (mouse host), EGFR (Rabbit host), ABCB5 (Goat Host), ALDH1A (Rabbit Host), NODAL (Goat Host), nuclear PDL1 (rabbit host), cytoplasmic PD-L1 (rabbit host) visualized with a donkey anti-rabbit AF 488, anti-mouse AF 568, donkey anti-goat 647. Cover slips were mounted on glass microscope slides with ProLong Glass Antifade reagent (Life Technologies). Protein targets were localised by digital pathology laser scanning microscopy. Single 0.5 μm sections were obtained using a ASI Digital pathology microscope using 100× oil immersion lens running ASI software. The final image was obtained by averaging four sequential images of the same section. Digital images were analyzed using automated ASI software (Applied Spectral Imaging, Carlsbad, CA) to determine the distribution and intensities automatically with automatic thresholding and background correction of the average nuclear fluorescence intensity (NFI), allowing for the specific targeting of expression of proteins of interest. Digital images were also analysed using ImageJ software (ImageJ, NIH, Bethesda, MD, USA) to determine the total cell fluorescence or cell surface only fluorescence for non-permeabilised cells. Digital images were analysed using ImageJ software (ImageJ, NIH, Bethesda, MD, USA) to determine either the Total Nuclear Fluorescent Intensity (TNFI), the Total Cytoplasmic Fluorescent Intensity (TCFI). ImageJ software with automatic thresholding and manual selection of regions of interest (ROIs) specific for cell nuclei was used to calculate the Pearson's co-efficient correlation (PCC) for each pair of antibodies. PCC values range from: −1=inverse of co-localisation, 0=no co-localisation, +1=perfect co-localisation. The Mann-Whitney nonparametric test (GraphPad Prism, GraphPad Software, San Diego, CA) was used to determine significant differences between datasets.
All breast cancer cell lines used were sourced from ATCC. MDA-MB-231 or MDB-MB-231-Br cell lines were maintained and cultured in DMEM (Invitrogen) supplemented with 10% FBS, 2 mM L-glutamine, and 1% PSN. […]
MDA-MB-231 were permeabilized and treated with either vehicle control or, DL-2 (current stock), or linear PDL1 (PDL1-L1). […] Significant differences are calculated as one-way ANOVA Kruskal-Wallis test comparison to vehicle control. […]

Row | Compound | complex of PDL1-PTM1 and IMPα1 (DUOLINK) [1] | expression of mesenchymal marker CSV (CFI) ([2]; MDA-MB-231, vs vehicle control, listed as linear PDL1 peptide) | expression of the epithelial marker E-Cadherin ([2]; MDA-MB-231) | expression of mesenchymal marker CSV (CFI) ([2]; MDA-MB-231, vs vehicle control) | mesenchymal stem-like resistant protein markers (CSV, ABCB5, EGFR, FOXQ1) ([2]; MDA-MB-231, vs vehicle control)
1 | LTFIFRLRKGRMMDVKK (Myristyl-LTFIFRLRKGRMMDVKK) [PDL1-L1, Myristyl- linear peptide, prototype] | no change | reduce expression of CSV with far less significance; also recorded: able to reduce expression of CSV |  |  | 
2 | CCCCCCCCCCCCCC(=O)NC(C)C(=O)NC1CSCc2cc3cc(c2)CSC[C@H](NC(=O)[C@H](Cc2ccccc2)NC(=O)[C@H](C(C)CC)NC(=O)[C@H](Cc2ccccc2)NC(=O)[C@H]([C@@H](C)O)NC(=O)C(CC(C)C)NC1=O)C(=O)N[C@@H](CCCNC(C)=N)C(=O)N[C@@H](CC(C)C)C(=O)N[C@@H](CCCNC(=N)N)C(=O)N[C@@H](CCCCN)C(=O)NCC(=O)N[C@@H](CCCNC(=N)N)C(=O)NC(C(=O)N[C@@H](CCSC)C(=O)NC(CCSC)C(=O)N[C@@H](CC(=O)O)C(=O)NC(C(=O)N[C@@H](CCCCN)C(=O)NC(CCCCN)C(=O)O)C(C)C)CSC3 (mixture of isomers) [DL-2] | able to successfully abrogate the complex |  | able to induce expression | inhibit | significantly inhibit
